Results published in publication PMC9343080, “Distribution- and Metabolism-Based Drug Discovery: A Potassium-Competitive Acid Blocker as a Proof of Concept” (Research, 2022).

Columns and labels:
[1] = Metabolite identification and profiling in rat hepatocytes; type: in vitro ADME; conditions: SH-337, rat hepatocytes, 60 min incubation
Experimental: (§1) SH-337 was incubated with rat or human hepatocytes at a concentration of 1.0 × 10^6 cells/mL for 60 min or 120 min (rat 60 min, human 120 min) at 37°C in a CO2 incubator. The samples were precipitated with acetonitrile at 1 : 2 and further centrifuged; the supernatants were dried with a stream of N2 gas. The residues were reconstituted with 300 μL of 10% acetonitrile/H2O (0.1% TFA) and analyzed by LC-MS/MS. The assays were pursued under the conditions provided in Supplementary Tables S5–S8.

[2] = biological target: T1, rabbit gastric H+, K+-ATPase (Oryctolagus cuniculus, UniProt P27112); assay: In vitro enzymatic activity assay (inorganic phosphate from ATP hydrolysis); type: biochemical
T1 construct: using rabbit gastric H^+, K^+-ATPase; from tissue; host or cells: rabbit stomach (gastric preparation; the method of preparation is not described)
T1 sequence (P27112 whole entry): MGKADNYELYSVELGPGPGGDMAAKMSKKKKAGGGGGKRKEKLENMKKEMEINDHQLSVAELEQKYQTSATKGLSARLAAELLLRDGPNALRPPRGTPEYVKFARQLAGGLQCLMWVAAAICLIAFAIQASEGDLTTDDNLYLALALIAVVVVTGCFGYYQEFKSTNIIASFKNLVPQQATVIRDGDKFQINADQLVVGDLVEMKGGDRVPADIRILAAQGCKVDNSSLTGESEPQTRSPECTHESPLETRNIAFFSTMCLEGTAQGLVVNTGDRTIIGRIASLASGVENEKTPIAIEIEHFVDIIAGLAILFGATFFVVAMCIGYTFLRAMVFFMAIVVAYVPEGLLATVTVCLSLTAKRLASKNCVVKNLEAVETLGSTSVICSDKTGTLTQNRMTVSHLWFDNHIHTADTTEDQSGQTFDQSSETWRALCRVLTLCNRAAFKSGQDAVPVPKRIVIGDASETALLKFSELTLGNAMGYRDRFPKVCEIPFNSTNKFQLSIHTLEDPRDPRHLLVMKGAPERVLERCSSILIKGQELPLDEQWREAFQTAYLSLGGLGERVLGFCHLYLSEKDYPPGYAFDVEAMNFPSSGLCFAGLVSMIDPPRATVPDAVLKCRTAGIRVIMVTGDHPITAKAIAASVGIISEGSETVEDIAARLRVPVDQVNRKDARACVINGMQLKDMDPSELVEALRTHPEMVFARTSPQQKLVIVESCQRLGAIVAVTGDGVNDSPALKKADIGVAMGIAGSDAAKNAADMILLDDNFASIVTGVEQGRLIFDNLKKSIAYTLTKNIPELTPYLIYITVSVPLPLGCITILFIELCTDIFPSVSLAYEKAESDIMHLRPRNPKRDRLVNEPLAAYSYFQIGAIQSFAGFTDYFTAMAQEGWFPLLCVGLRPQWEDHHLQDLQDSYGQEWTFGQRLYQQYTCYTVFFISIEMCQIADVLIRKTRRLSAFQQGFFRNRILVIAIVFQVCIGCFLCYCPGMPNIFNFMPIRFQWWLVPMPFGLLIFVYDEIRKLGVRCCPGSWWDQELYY
T1 sequence (P18597 whole entry partner): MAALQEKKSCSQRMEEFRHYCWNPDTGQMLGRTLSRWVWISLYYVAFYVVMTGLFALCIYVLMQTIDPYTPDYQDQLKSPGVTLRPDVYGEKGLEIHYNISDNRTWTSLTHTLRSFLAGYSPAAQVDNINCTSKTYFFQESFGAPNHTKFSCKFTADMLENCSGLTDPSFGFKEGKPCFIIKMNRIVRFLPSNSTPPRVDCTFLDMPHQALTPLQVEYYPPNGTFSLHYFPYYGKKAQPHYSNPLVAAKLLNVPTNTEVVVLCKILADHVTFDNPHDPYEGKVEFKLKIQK
Experimental: The in vitro enzymatic activity was calculated by measuring the inorganic phosphate produced by the hydrolysis of ATP using rabbit gastric H^+, K^+-ATPase. 0.25 μg enzyme was preincubated at 37°C for 30 min in Tris-HCl buffer (2.0 mL, 50 mM, pH 6.5) containing 5 mM MgCl2, 10 μM valinomycin, 0 or 20 mM KCl, and different concentrations of SH-337 and vonoprazan. The reaction was initiated by adding 5 μL of 5 mM ATP 2Na, and the preparation was incubated for 30 min at 37°C and halted by the addition of 100 μL of malachite green reagent (0.12% malachite green, 7.5% ammonium molybdate, and 11% tween 20 were mixed in a volume ratio of 100 : 25 : 2). H^+, K^+-ATPase activity was calculated after subtracting the enzyme activity in the absence of KCl.

Na+, K+-ATPase = assay: In vitro Na+, K+-ATPase activity; type: biochemical
[3] = Human microsomal stability; type: in vitro ADME
Experimental: The in vitro metabolic stabilities of selected compounds were performed using human and rat liver microsomes in triplicate as described previously.

[4] = Metabolite identification and profiling in human hepatocytes; type: in vitro ADME; conditions: SH-337, human hepatocytes, 120 min incubation
Experimental: as §1

[5] = log D7.4 measurement (1-octanol/PBS pH 7.4); type: physicochemical
Experimental: Procedure for pKa and log D7.4 measurements. The pKa was determined using pH-metric Method from DMSO Stock Solution. Procedure for Log D determinations: 15 µL of stock solutions of test compounds and control compound was placed in order into their proper 96-well rack. 500 µL of PBS saturated 1-octanol was added into each vial of the cap-less Log D plate followed by the addition of 500 µL of 1-octanol saturated PBS (pH 7.4). One stir stick was added to each vial and a molded PTFE/Silicone plug was used to seal each vial. Then the Log D plate was transferred to the Eppendorf Thermomixer Comfort plate shaker and shaken at 25°C at 1,100 RPM for 1 hour. After completion of 1 hour, plugs were removed and the stir sticks were removed using a big magnet. The samples were then centrifuged at 25°C at 20,000 g for 20 minutes to separate the phases, and pipette and syringe were used to remove the upper (1-octanol) and lower (buffer) phases to the empty tubes, respectively. Aliquots of 5 µL were taken from upper phases followed by addition of 495 µL of a mixture of H2O and acetonitrile (1:1 in v/v). Vortex for 1 minute, and then aliquots of 50 µL were taken from the diluent followed by addition of 450 µL of a mixture of H2O and acetonitrile (1:1 in v/v). And aliquots of 50 µL were taken from lower phases followed by addition of 450 µL of a mixture of H2O and acetonitrile (1:1 in v/v). 200 μL of diluent was transferred to a new 96-well plate for LC-MS/MS analysis. The dilution factor was changed according to the Log D value and the LC-MS signal response. The concentrations of test compound and control compound in 1-octanol/buffer solution were evaluated by LC-MS/MS. The Log D values of the test compounds and control compound were calculated as follows: […]

[6] = Two-week repeat-dose toxicity test; type: in vivo, SD rats
Experimental: For acute toxicity test: 12 SPF SD rats were randomly divided into three groups and received a single dose of SH-337 (1000 mg/kg, i.g.), and the animal tolerance was recorded within 2 hours. For two-week repeat-dose toxicity test: 20 SPF SD rats were randomly divided into two groups and received SH-337 (100, 200 mg/kg, i.g.) once daily for 14 days. SH-337 was dissolved in 0.5% CMC-Na. The body weight of the rats was recorded every 7 days. During the experiment, clinical parameters included apparent changes in the mental state, skin or fur, behavior, genitals, mucous membranes, respiration, stool consistency, glandular organ secretions, mortality, or other toxic results that were recorded. In addition, animal bodyweight and food intake were assessed once weekly over the study period. At the end of the experiment, the rats were sacrificed, and the serum hematological parameters and serum biochemistry parameters were recorded.

With `CNCc1cc(-c2ccc(OCC3CC3)cc2F)n(S(=O)(=O)c2cccnc2)c1.Cl.Cl` [SH-337, 1-(5-(4-(cyclopropylmethoxy)-2-fluorophenyl)-1-(pyridin-3-ylsulfonyl)-1H-pyrrol-3-yl)-N-methylmethanamine dihydrochloride] the “Relative peak area, RHeps” value [1] was 28.2%, the IC50 [2] was 0.0338 µM and the “fold greater enzyme inhibitory activity than vonoprazan” value ([2]; H+, K+-ATPase IC50, SH-337 vs. vonoprazan) was 2.0 fold. The IC50 (Na+, K+-ATPase) was 31.3 µM, the Fold selectivity (Na+, K+-ATPase; Na+, K+-ATPase over H+, K+-ATPase) was 925.6 fold and the “fold reduction of t1/2 vs. vonoprazan” value ([3]; human microsomes) was 4.2 fold. The half-life ([3]; human, human liver microsomes, read-out: Metabolic stability (t1/2) human) was 1.36 h, the “Relative peak area, Hheps” value [4] was 76.5% and the logD at 1 h ([5]; 1-octanol/PBS, pH 7.4, pH 7.4) was 1.3. For the same compound, the “log D7.4” value ([5]; pH 7.4) was 1.28, the “NOAEL, fold higher than vonoprazan” value ([6]; 100 mg/kg vs. 30 mg/kg) was 3.3 fold and the NOAEL at 14 days ([6]; SD, rat, in vivo, po, no observed adverse effect level (NOAEL)) was no less than 100 mg/kg. The repeated-dose toxicity findings ([6]; rats, daily oral 100 mg/kg for 2 weeks) was “no evidence of SH-337 toxicity was observed”.
